In patent EP2100894A1, “Pyridopyrimidines used as Plk1 (polo-like kinase) inhibitors” (4SC AG, priority 2008, dated 2009):

target: T1, PIk1 (Homo sapiens, UniProt P53350); assay: PIk1 kinase activity inhibition assay (33P incorporation into alpha casein, flash plates); format: biochemical; conditions: recombinant N-terminally histidine-tagged PIk1, alpha casein as substrate, 100 nM Li-ATP, 80 minutes at 30°C
T1 construct: His tag (histidine tag) (N); made in house; host or cells: SF9 insect cells
T1 sequence (P53350 whole entry): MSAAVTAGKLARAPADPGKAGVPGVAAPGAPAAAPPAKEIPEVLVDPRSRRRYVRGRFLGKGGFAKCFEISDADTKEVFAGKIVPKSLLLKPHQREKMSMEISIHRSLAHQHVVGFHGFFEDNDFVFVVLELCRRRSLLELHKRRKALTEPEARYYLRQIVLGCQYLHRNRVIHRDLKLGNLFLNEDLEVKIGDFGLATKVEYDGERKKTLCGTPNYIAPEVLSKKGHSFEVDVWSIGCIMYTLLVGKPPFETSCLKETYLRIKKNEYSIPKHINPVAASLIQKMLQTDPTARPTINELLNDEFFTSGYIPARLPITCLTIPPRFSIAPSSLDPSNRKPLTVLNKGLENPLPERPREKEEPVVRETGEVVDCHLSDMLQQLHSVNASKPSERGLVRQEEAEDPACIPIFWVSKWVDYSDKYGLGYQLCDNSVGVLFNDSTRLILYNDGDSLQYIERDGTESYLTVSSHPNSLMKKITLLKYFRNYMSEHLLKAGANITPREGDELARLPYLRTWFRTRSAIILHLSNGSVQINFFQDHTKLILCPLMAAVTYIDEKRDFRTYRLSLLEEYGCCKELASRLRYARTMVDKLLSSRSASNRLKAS
Procedure: The inhibition of PIk1 kinase activity can be measured using recombinant PIk1 protein expressed as an N-terminally histidine-tagged protein in SF9 insect cells and alpha casein as substrate. The PIk1 assay is run in 96 well plates by incubating 50 to 100 ng per well recombinant PIk1, 500 ng per well alpha casein (Sigma, # C-6780) as substrate, 10 µl of compound of invention (test compounds were dissolved as 20 mM solutions in dimethylsulfoxide (DMSO) and subsequently diluted), and 100 nM Li-ATP (including ^33P-ATP) in 100 µl of reaction buffer ([…], pH 7.5; 3 mM MgCl2; 3 mM MnCl2; 3 µM Na-Orthovanadat; 1 mM DTT; 1 µg/ml PEG 8000) for 80 minutes at 30°C. The reactions are terminated by adding 100 µl stopping buffer (2% H3PO4 for 5 minutes) and are washed 3 times with washing solution (0,9% NaCl). Determining ^33P incorporated into the protein substrate alpha casein, the detection is based on the adhesion of the phosphorylated protein to the surface of scintillator-coated flash plates (Perkin Elmer, USA; # SMP-200). Phosphorylation of alpha casein is measured by counting the radioactivity bound to the plate for 60 sec. using a plate reader (Perkin Elmer, USA; Wallac Microbeta). By this method, the IC50 value of the PIk1 inhibition is determined as described above. […]

| Compound | IC50 |
| --- | --- |
| C/C=C/c1c(OCC2CC2)c(=O)n(C)c2cnc(Nc3ccc(C(=O)NC4CCN(C)CC4)cc3OC)nc12 [Example 27, 4-({7-(cyclopropylmethoxy)-5-methyl-6-oxo-8-[(1E)-prop-1-en-1-yl]-5,6-dihydropyrido[3,2-d]pyrimidin-2-yl}amino)-3-methoxy-N-(1-methylpiperidin-4-yl)benzamide] | < 100 nM |
| C/C=C/c1c(OC)c(=O)n(C)c2cnc(Nc3ccc(C(=O)Nc4cccnc4)cc3OC)nc12 [Example 28, 3-methoxy-4-({7-methoxy-5-methyl-6-oxo-8-[(1E)-prop-1-en-1-yl]-5,6-dihydropyrido[3,2-d]pyrimidin-2-yl}amino)-N-pyridin-3-ylbenzamide] | < 1000 nM |
| C/C=C/c1c(OC)c(=O)n(C)c2cnc(Nc3ccc(C(=O)N[C@@H](C)Cc4c[nH]cn4)cc3OC)nc12 [Example 29, N-[(1S)-2-(1H-imidazol-4-yl)-1-methylethyl]-3-methoxy-4-({7-methoxy-5-methyl-6-oxo-8-[(1E)-prop-1-en-1-yl]-5,6-dihydropyrido[3,2-d]pyrimidin-2-yl}amino)benzamide] | < 100 nM |
| CCOc1c(-c2ccsc2)c2nc(Nc3ccc(C(=O)NC4CCN(C)CC4)cc3OC)ncc2n(C)c1=O [Example 30, 4-{[7-ethoxy-5-methyl-6-oxo-8-(3-thienyl)-5,6-dihydropyrido[3,2-d]pyri-midin-2-yl]amino}-3-methoxy-N-(1-methylpiperidin-4-yl)benzamide] | < 10 nM |
| COc1cc(C(=O)NC2CCN(C)CC2)ccc1Nc1ncc2c(n1)c(-c1ccsc1)c(OC(C)C)c(=O)n2C [Example 31, 4-{[7-isopropoxy-5-methyl-6-oxo-8-(3-thienyl)-5,6-dihydropyrido[3,2-d]pyrimidin-2-yl]amino}-3-methoxy-N-(1-methylpiperidin-4-yl)benzamide] | < 100 nM |
| COc1cc(C(=O)NC2CCN(C)CC2)ccc1Nc1ncc2c(n1)c(-c1ccsc1)c(OCC1CC1)c(=O)n2C [Example 32, 4-{[7-(cyclopropylmethoxy)-5-methyl-6-oxo-8-(3-thienyl)-5,6-dihydro-pyrido[3,2-d]pyrimidin-2-yl]amino}-3-methoxy-N-(1-methylpiperidin-4-yl)benzamide] | < 100 nM |
| COc1cc(C(=O)NC2CCN(C)CC2)ccc1Nc1ncc2c(n1)c(-c1cscc1C)c(OC)c(=O)n2C [Example 33, 3-methoxy-4-{[7-methoxy-5-methyl-8-(4-methyl-3-thienyl)-6-oxo-5,6-dihydropyrido[3,2-d]pyrimidin-2-yl]amino}-N-(1-methylpiperidin-4-yl)benzamide] | < 1000 nM |
| COc1cc(C(=O)NC2CCN(C)CC2)ccc1Nc1ncc2c(n1)c(-c1cncnc1)c(OC)c(=O)n2C [Example 34, 3-methoxy-4-[(7-methoxy-5-methyl-6-oxo-8-pyrimidin-5-yl-5,6-dihydro-pyrido[3,2-d]pyrimidin-2-yl)amino]-N-(1-methylpiperidin-4-yl)benzamide] | < 1000 nM |
| COc1cc(C(=O)NC2CCN(C)CC2)ccc1Nc1ncc2c(n1)c(-c1cnn(C)c1)c(OC)c(=O)n2C [Example 35, 3-methoxy-4-{[7-methoxy-5-methyl-8-(1-methyl-1H-pyrazol-4-yl)-6-oxo-5,6-dihydropyrido[3,2-d]pyrimidin-2-yl]amino}-N-(1-methylpiperidin-4-yl)benzamide] | < 1000 nM |
| CCC(C)Oc1c(-c2ccsc2)c2nc(Nc3ccc(C(=O)NC4CCN(C)CC4)cc3OC)ncc2n(C)c1=O (centres unmarked) [Example 36, 4-{[7-sec-butoxy-5-methyl-6-oxo-8-(3-thienyl)-5,6-dihydropyrido[3,2-d]pyrimidin-2-yl]amino}-3-methoxy-N-(1-methylpiperidin-4-yl)benzamide] | < 100 nM |
| CCOc1c(C2CC2)c2nc(Nc3ccc(C(=O)NC4CCN(C)CC4)cc3OC)ncc2n(C)c1=O [Example 37, 4-[(8-cyclopropyl-7-ethoxy-5-methyl-6-oxo-5,6-dihydropyrido[3,2-d]pyrimidin-2-yl)amino]-3-methoxy-N-(1-methylpiperidin-4-yl)benzamide] | < 100 nM |
| COc1cc(C(=O)NC2CCN(C)CC2)ccc1Nc1ncc2c(n1)c(C1CC1)c(OCC1CC1)c(=O)n2C [Example 38, 4-{[8-cyclopropyl-7-(cyclopropylmethoxy)-5-methyl-6-oxo-5,6-dihydro-pyrido[3,2-d]pyrimidin-2-yl]amino}-3-methoxy-N-(1-methylpiperidin-4-yl)benzamide] | < 10 nM |
| COc1cc(C(=O)NC2CCN(C)CC2)ccc1Nc1ncc2c(n1)c(-c1ccoc1)c(OCC1CC1)c(=O)n2C [Example 39, 4-{[7-(cyclopropylmethoxy)-8-(3-furyl)-5-methyl-6-oxo-5,6-dihydro-pyrido[3,2-d]pyrimidin-2-yl]amino}-3-methoxy-N-(1-methylpiperidin-4-yl)benzamide] | < 10 nM |
| C/C=C/c1c(OC(C)CC)c(=O)n(C)c2cnc(Nc3ccc(C(=O)NC4CCN(C)CC4)cc3OC)nc12 (centres unmarked) [Example 40, 4-({7-sec-butoxy-5-methyl-6-oxo-8-[(1E)-prop-1-en-1-yl]-5,6-dihydro-pyrido[3,2-d]pyrimidin-2-yl}amino)-3-methoxy-N-(1-methylpiperidin-4-yl)benzamide] | < 100 nM |
| C/C=C/c1c(OCC(C)C)c(=O)n(C)c2cnc(Nc3ccc(C(=O)NC4CCN(C)CC4)cc3OC)nc12 [Example 41, 4-({7-isobutoxy-5-methyl-6-oxo-8-[(1E)-prop-1-en-1-yl]-5,6-dihydro-pyrido[3,2-d]pyrimidin-2-yl}amino)-3-methoxy-N-(1-methylpiperidin-4-yl)benzamide] | < 10 nM |
| C/C=C/c1c(OCC2CCCC2)c(=O)n(C)c2cnc(Nc3ccc(C(=O)NC4CCN(C)CC4)cc3OC)nc12 [Example 42, 4-({7-(cyclopentylmethoxy)-5-methyl-6-oxo-8-[(1E)-prop-1-en-1-yl]-5,6-dihydropyrido[3,2-d]pyrimidin-2-yl}amino)-3-methoxy-N-(1-methylpiperidin-4-yl)benzamide] | < 100 nM |
| C/C=C/c1c(OC2CCC2)c(=O)n(C)c2cnc(Nc3ccc(C(=O)NC4CCN(C)CC4)cc3OC)nc12 [Example 43, 4-({7-(cyclobutyloxy)-5-methyl-6-oxo-8-[(1E)-prop-1-en-1-yl]-5,6-dihydropyrido[3,2-d]pyrimidin-2-yl}amino)-3-methoxy-N-(1-methylpiperidin-4-yl)benzamide] | < 10 nM |
| CCOc1c(-c2ncco2)c2nc(Nc3ccc(C(=O)NC4CCN(C)CC4)cc3OC)ncc2n(C)c1=O [Example 44, 4-{[7-ethoxy-5-methyl-8-(1,3-oxazol-2-yl)-6-oxo-5,6-dihydropyrido[3,2-d]pyrimidin-2-yl]amino}-3-methoxy-N-(1-methylpiperidin-4-yl)benzamide] | < 100 nM |
| C/C=C/c1c(OC(C)C2CC2)c(=O)n(C)c2cnc(Nc3ccc(C(=O)NC4CCN(C)CC4)cc3OC)nc12 (centres unmarked) [Example 45, 4-({7-(1-cyclopropylethoxy)-5-methyl-6-oxo-8-[(1E)-prop-1-en-1-yl]-5,6-dihydropyrido[3,2-d]pyrimidin-2-yl}amino)-3-methoxy-N-(1-methylpiperidin-4-yl)benzamide] | < 100 nM |
| C#Cc1c(OC)c(=O)n(C)c2cnc(Nc3ccc(C(=O)NC4CCN(C)CC4)cc3OC)nc12 [Example 46, 4-[(8-ethynyl-7-methoxy-5-methyl-6-oxo-5,6-dihydropyrido[3,2-d]pyri-midin-2-yl)amino]-3-methoxy-N-(1-methylpiperidin-4-yl)benzamide] | < 100 nM |
